The values that follow come from ChEMBL document CHEMBL3639137, “3H-imidazo [4, 5-C] pyridine-6-carboxamides as anti-inflammatory agents” (2014).

This assay addresses T1, Prostaglandin E synthase (Homo sapiens, UniProt O14684).
T1 sequence (O14684 whole entry): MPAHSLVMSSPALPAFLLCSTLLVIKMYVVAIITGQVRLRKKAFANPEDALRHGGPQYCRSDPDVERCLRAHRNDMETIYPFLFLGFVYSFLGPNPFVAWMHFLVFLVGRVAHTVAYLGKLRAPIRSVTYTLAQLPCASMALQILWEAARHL
Put plainly: Enzyme Assay: The aim of this assay is to determine the affinity of a test compound for the mPGES-1 enzyme. 47 ul of recombinant human mPGES-1 (0.5 ug protein/well) containing microsomal suspension in a buffer containing GSH, (2.5 mmol/L L-Glutathione reduced, dissolved in 0.1 mol/L Phosphat Buffer pH 7.4) is dispensed in a 384-well plate and thereafter 1 ul of the test compound(s) is/are added and incubated for 25 minutes at room temperature. The enzyme reaction is started by the addition of 2 ul PGH2 (final conc. 2 uM) dissolved in water-free Diglyme. After 60 seconds the reaction is terminated by addition of a stop solution containing FeCl2 (10 uL 0.074 mol/l FeCl2). The samples are diluted between 1:25 in PBS (Phosphate Buffered Saline). 10 ul of the diluted samples are transferred to 384-well low volume plate.
One may read the IC50 as the midpoint of a concentration-inhibition curve. For the molecule `CC(C)(C)C(=O)NCc1ccc(Cl)c(Nc2nc3c(F)c(OCC(F)(F)F)c(C(=O)N[C@H]4CC[C@H](C(F)(F)F)CC4)cc3[nH]2)c1Cl`, the IC50 is 2 nM. As to `CC(C)(C)C(=O)NCc1ccc(Cl)c(Nc2nc3cc(OC(F)F)c(C(=O)N[C@H]4CC[C@H](C(F)(F)F)CC4)cc3[nH]2)c1Cl`, the IC50 came to 2 nM. The result for `Cn1c(Nc2c(Cl)ccc(CNC(=O)C(C)(C)C)c2Cl)nc2cc(C(=O)Nc3ccc(Br)cc3)c(F)cc21` reads 2 nM; that for `Cn1c(Nc2c(Cl)ccc(CNC(=O)C(C)(C)C)c2Cl)nc2cc(C(=O)Nc3cccc(C#N)c3)c(OCC(F)F)cc21`, 3 nM.
